Assay results published in US9783853B2, “Recurrent gene fusions in cancer” (THE REGENTS OF THE UNIVERSITY OF MICHIGAN, priority 2013, dated 2017).

Tests used:
[1] = tested on: SW780 cells (FGFR3-BAIAP2L1 fusion); test: Cell proliferation assay (WST-1), FGFR inhibition; assay type: cell-based; settings: 0, 5, 25, 100 nM
Experimental: For validation of fusion transcripts, quantitative RT-PCR assays were performed. Total cDNAs of index cases and negative control samples were synthesized using SuperScript III System according to the manufacturer's instructions (Invitrogen). Quantitative RT-PCR was performed using fusion-specific primers (Table 15) with SYBR Green Master Mix (Applied Biosystems) on the StepOne Real-Time PCR System (Applied Biosystems). The PCR products were further analyzed by agarose gel electrophoresis. Relative mRNA levels of the fusion transcripts were normalized to the expression of the housekeeping gene GAPDH. Inhibition of FGFR receptors and cell proliferation assay Bladder cancer cells SW780, J82, and HT1197 were seeded into 96-well plates in triplicate and allowed to attach before drug treatment. The FGFR inhibitor PD173074 (Selleck Chemicals) was added to the cultures at concentrations of 0, 5, 25, and 100 nM. Relative cell numbers were measured by WST-1 assays at indicated time points following the manufacturer's instructions (Roche).

J82 xenografts = test: Mouse xenograft model, tumor growth; assay type: in vivo, C.B17/SCID mice; settings: increasing doses, intraperitoneal
Experimental: (§1) Five week-old male C.B17/SCID mice were procured from a breeding colony at University of Michigan, maintained by Dr. Kenneth Pienta. Mice were anesthetized using a cocktail of xylazine ([…], intraperitoneal) and ketamine (10 mg/kg, intraperitoneal) for chemical restraint. Bladder cancer cells SW780 (2 million cells for each implantation site) or J82 (5 million cells for each implantation site) were resuspended in 100 μl of 1×PBS with 20% Matrigel (BD Biosciences) and were implanted subcutaneously into flank region on both sides. Eight mice were included in each experimental group. All tumors were staged for two weeks (SW780 cells) and three weeks (J82 cells) before starting the drug treatment. Xenografted mice with palpable tumors were treated with a FGFR inhibitor PD173074 (Selleck Chemicals) dissolved in 5% ethanol in corn oil (intraperitoneal). Mice in control group received 5% ethanol in corn oil as vehicle control. Tumor growth was recorded weekly by using digital calipers and tumor volumes were calculated using the formula (π/6) (L×W2), where L=length of tumor and W=width. Any decrease in the body weight of mice was monitored bi-weekly during the course of the study. All experimental procedures involving mice were approved by the University Committee on Use and Care of Animals (UCUCA) at the University of Michigan and conform to their relevant regulatory standards.

SW780 xenografts = test: Mouse xenograft model, tumor growth; assay type: in vivo, C.B17/SCID mice; settings: increasing doses, intraperitoneal
Experimental: as §1

## CCN(CC)CCCCNc1ncc2cc(-c3cc(OC)cc(OC)c3)c(NC(=O)NC(C)(C)C)nc2n1 [PD173074]
[1]
  sensitivity of cell line to FGFR inhibitor (cell proliferation): sensitive to nanomolar concentrations
[1]; listed as PD 173074
  sensitivity of cell line to FGFR inhibitor (cell proliferation): enhanced sensitivity
J82 xenografts
  xenograft tumor growth: did not
SW780 xenografts
  xenograft tumor growth: decreased tumor growth
